“Also recorded” adds a separate entry of the source.
Legend:
C57BL/6 STZ mice = assay: Fasting blood glucose in STZ-induced diabetic C57BL/6 mice treated with IGF-2; type: in vivo; settings: for Fasting glucose levels: individual mice per block
Protocol: C57BL/6 mice male 8-10 weeks old, housed under conventional conditions and allowed laboratory chow and water ad libitum, were used in the experiments described below in Examples 3-4. Within each experiment, animals were matched by age and weight (20-24 g) and randomly divided into groups to receive different treatments. Diabetes was induced by one or more doses of streptozotocin (STZ).
Briefly, animals received intraperitoneally (i.p.) 100 mg/kg (b.w.) STZ (Cayman Chemical, Ann Arbor, MI) dissolved in citrate buffer on pH 4.5 (this procedure was repeated if needed). Clinical diabetes was defined by hyperglycemia (blood glucose levels >300 mg/dl in fasted animals). Fasting blood glucose levels were measured three times per week and samples were taken from the tail tip after starvation for 6 hours throughout the experiment.
Fasting blood glucose levels (mg/dL) were determined using the Accu-Chek Performa glucometer (Roche Diagnostics, Mannheim, Germany). After approximately two weeks of stable hyperglycemia, C57BL/6 STZ mice received exogenous injections of recombinant human IGF-2 (0.3-12 mg/kg/day injection) intraperitoneally for 5-10 consecutive days. During post-treatment follow-up period and upon termination, mice were tested for: fasting glucose, body weight, glucose tolerance test (IPGTT), serum C-peptide level, serum insulin level, and full blood and histological analysis (CBC, Chemistry, Insulin IHC and H&E).

[1] = Blood concentration of IGF-2 after 40 μg intraperitoneal injection (ELISA); type: in vivo, mouse; settings: 240 minute time frame
Text: Without being bound by this theory, it is believed that IGF-2 binding proteins may initially inactivate the biological activity of free IGF-2. And over time, the bond between IGF-2 and the binding protein may be released, increasing the bioavailability of IGF-2 and leading to a longer term effective treatment.

mice = assay: Blood glucose concentration kinetics of IGF-2 vs. insulin in a glucose tolerance test; type: in vivo
Protocol: IGF-2 therefore provides an effect that mimics insulin within the body, and that effect is referred to herein as an “insulinomimetic” effect. […] More specifically, when 1 unit of insulin per kg was administered, the recovery in glucose levels began after two hours. But when 800 μg/kg of IGF-2 was administered, the recovery in glucose levels began after six hours. […] In this example, administering IGF-2 can provide better results than administering insulin with respect to blood glucose levels, even when only a single dose was used. Without being bound by this theory, it is possible that the IGF-2 combines with a number of binding proteins in the blood and its active free form is then released slowly from the complex.

NOD mice [2] = assay: Serum insulin / insulin secretion in NOD mice treated with IGF-2; type: in vivo
Protocol: FIG. 30B depicts the levels of serum insulin in NOD mice measured two weeks after a 66 day course of treatment using IGF-2. Mice that were treated with 3000 μg/kg/day of IGF-2 had serum insulin levels that were about 4-fold higher than the control mice.
In one exemplary experiment, NOD mice were treated with a 3000 μg/kg daily doses of IGF-2 for 150 days. ⅘ of the treated mice maintained normoglycemia compared to ¼ of the control mice. In another exemplary experiment, NOD mice were treated with a 3000 μg/kg daily dose of IGF-2 for 75 days with follow-up glucose measurements taken for an additional 90 days (during which IGF-2 was not administered). ⅝ of the treated mice maintained normoglycemia compared to 2/11 of the control mice. The average insulin secretion of the treated mice in both of these experiments was five times greater than the control mice.

NOD mice [3] = assay: Islet cell staining for glucagon and insulin in NOD mice; type: in vivo; settings: NOD mice treated with IGF-2 for 13 weeks
Text: FIG. 30D confirms the results shown in FIG. 30C and provides the number of cells staining positive for insulin in NOD mice treated with IGF-2 (right bar) versus untreated NOD mice (left bar).

β-MIN6 cells = assay: Cell count (proliferation) of β-MIN6 cells; type: cell-based, mouse; settings: 5 nM, 20 nM, 80 nM, 1 week treatment
Text: β-MIN6 cells serve as an in vitro model of mouse pancreatic islets. β-MIN6 cells were used as an in vitro model to measure the effects of treatment with IGF-2.

STZ-treated mouse islets = assay: Insulin secretion from STZ-treated mouse islets; type: cell-based; settings: islets treated with 2.5 mM STZ; IGF-2 50 nM and 500 nM, GLP-1 100 nM and 1000 nM; 48 hours
Protocol: Mouse islet cells were treated with 2.5 mM STZ and subsequently treated with either IGF-2 (FA) at 50 nM and 500 nM, or with GLP-1 at 100 nM and 1000 nM.

[4] = Safety/toxicity: pathology of blood samples and tissue samples from thirty organs; type: in vivo; settings: end of 10 days of treatment, 24 days after termination, and 100 days after termination of 30 days of treatment
Human pancreatic islets = assay: Peptides efficacy on human pancreatic islets (IHC, digital quantitative pathological analysis); type: cell-based; settings: IGF-2 500 nM, Peptide-20 1000 nM, five days
Protocol: Human pancreatic islets, obtained from Prodo Labs, were cultured in Prodo Labs PIM(S) media and maintained at 37° C. with 5% CO2 to ensure optimal viability. The islets were treated with IGF-2 (500 nM) and Peptide-20 (1000 nM) for five days under continuous exposure. After treatment, islets were collected and fixed in 4% paraformaldehyde (PFA) to preserve cellular and structural integrity. The samples were then processed for formalin-fixed paraffin-embedded (FFPE) histology. Sectioned islets were stained using immunohistochemistry (IHC) with specific markers to assess islet integrity, β-cell function, and proliferation. Microscopic Digital Quantitative Pathological Analysis provided critical insights into the effects of IGF-2 and Peptide-20 on islet structure and function. […] These findings establish Peptide-20 as a strong candidate for novel diabetes therapies aimed at restoring islet function and reversing β-cell loss. […] Their ability to enhance β-cell survival and proliferation positions them as strong candidates for the development of novel regenerative therapies, paving the way for innovative drug development aimed at reversing diabetes and restoring endogenous insulin production.

[5] = average of four STZ mice, daily intraperitoneal 3000 μg/kg/day IGF-2

Substance: insulin-like growth factor 2 [IGF-2]
- Hypoglycemia (C57BL/6 STZ mice; 10:1 ratio of dosages, between 3000 μg and 300 μg): did not cause hypoglycemia
- Fasting glucose levels after the ten day course of injections ended (C57BL/6 STZ mice; STZ mice F3 and F4, IGF-2 800 μg/kg/day): around 400
- Fasting glucose levels (C57BL/6 STZ mice; STZ mice, IGF-2 300 μg/kg/day, initial plus ten additional doses): did not return to a normal range, and long-term results were not observed; also recorded: temporary drop in fasting glucose levels from days 10-25, but the long-term results were similar to the results for Mouse B5
- Fasting glucose levels (C57BL/6 STZ mice; STZ mice, IGF-2 800 μg/kg/day, day 0 and ten more times within ten days): returned to a normal range during the ten-day course of treatment with IGF-2, and remained in the normal range until the end of the experiment; also recorded: returned to a normal range during the ten-day course of treatment with IGF-2, and remained in the normal range until STZ was provided again
- Blood glucose levels remaining (full or almost full resolution) (C57BL/6 STZ mice; STZ mice, IGF-2 800 μg/kg/day, half the mice (FIGS. 5A, 5B)): ~200 mg/dL
- Blood glucose levels remaining (partial improvement) (C57BL/6 STZ mice; STZ mice, IGF-2 800 μg/kg/day, the remaining mice (FIGS. 6A, 6B)): ~400 mg/dL
- Fasting glucose levels (C57BL/6 STZ mice; STZ mice, IGF-2 3000 μg/kg/day, 10 day course): returned to a normal range during the ten-day course of treatment with IGF-2, and remained in the normal range until the end of the experiment; also recorded: returned to high levels after the 10 day course treatment with IGF-2 ended; also recorded: initially responded to treatment with a 3000 μg/kg/day dose of IGF-2 but were not permanently cured
- Long-term improvements in blood glucose levels (C57BL/6 STZ mice; STZ mice, IGF-2 12,000 μg/kg daily on only 5 consecutive days): long-term improvements in blood glucose levels were not obtained
- Blood glucose level reached (normal range) (C57BL/6 STZ mice; [5]): 100 to 200 mg/dL
- Time to reduce blood glucose to a normal range (C57BL/6 STZ mice; [5]): 3 to 5 days
- Hypoglycemia (C57BL/6 STZ mice; even when the IGF-2 dose was increased to 12,000 μg/kg/day): Hypoglycemia was never observed
- Time post treatment that normal blood glucose levels are maintained (C57BL/6 STZ mice; four STZ mice, 10 day course at 3000 μg/kg/day, no additional doses): at least 300 days
- Free IGF-2 in the blood (peak) [1]: 1 µg
- Peak total concentration of IGF-2 in the blood [1]: about 16 μg
- Glucose level after administration (mice; glucose tolerance test in mice): decreased
- Time after which the recovery in glucose levels began (mice; insulin 1 unit per kg, IGF-2 800 μg/kg, single dose): six
- Serum insulin levels relative to the control mice (NOD mice [2]; 3000 μg/kg/day for 66 days, measured two weeks after treatment): about 4 fold
- Average insulin secretion of the treated mice relative to the control mice (NOD mice [2]; both experiments (150 days; 75 days plus 90 days follow-up)): five
- Islet cells (histological staining for glucagon and insulin) (NOD mice [3]): fully functional islet cells
- Cell count (cell proliferation) (β-MIN6 cells): increases cell proliferation in a dose-dependent manner
- Insulin secretion (STZ-treated mouse islets): increased in a dose dependent manner
- Pathologies related to treatment in blood samples and tissue samples from thirty organs [4]: No pathologies were identified
- Pancreatic islet regeneration, integrity and function (Human pancreatic islets): significant regenerative potential

— patent US20260151457A1, “Peptides and Fragments for Treating Diabetes and Associated Metabolic Diseases” (Betavive Ltd., priority 2024, published 2026)
